Measured values published in patent US20230250098A1 (priority 2021, published 2023).
Entries after “also recorded” stand apart in the source; their conditions may differ. Counter-ions that a name gives are not always drawn.

Tests used:
WT mice = assay: Locomotor evaluation
C57Bl/6 wild-type mice [1] = conditions: cited from earlier work; for alcohol consumption, in words (previous reports): dose not stated
C57Bl/6 wild-type mice [2] = assay: Two-bottle choice alcohol paradigm (drinking in the dark, 10% ethanol vs water); type: in vivo, mouse
δOP [3] = biological target: T1, δOP (Homo sapiens, UniProt P41143); type: binding; parameters: membranes isolated; conditions: for Binding pKi / Ki: [3H]DPDPE, CHO membranes; for Ki: read-out: Binding Ki
κOP = κOP (Homo sapiens, UniProt P41145); type: binding; parameters: membranes isolated; conditions: for Ki: read-out: Binding Ki
μOP = μOP (Homo sapiens, UniProt P35372); type: binding; parameters: membranes isolated; conditions: for Binding pKi / Ki: [3H]DAMGO, CHO membranes; for Ki: read-out: Binding Ki
FLAG-mouse δOP = biological target: T2, FLAG-mouse δOP (Mus musculus, UniProt P32300); assay: GloSensor cAMP inhibition assay in transfected HEK cells; type: cell-based; conditions: for cAMP α: efficacy normalized to positive control Leu-Enk; for IC50 / cAMP pIC50: inhibition of forskolin-induced cAMP
T2 construct: FLAG (N); expressed in transfected cells; host or cells: HEK cells (HEK-293), transient transfection together with pGloSensor22F

δOP KO mice = assay: Two-bottle choice alcohol paradigm in δOP KO mice; type: in vivo, mouse; conditions: male δOP KO mice
FLAG-mouse κOP = biological target: T3, FLAG-mouse κOP (Mus musculus, UniProt P33534); type: cell-based; conditions: for IC50: read-out: cAMP IC50
T3 construct: FLAG (N); expressed in transfected cells; host or cells: HEK cells, transient transfection together with pGloSensor22F

HA-mouse μOP = biological target: T4, HA-mouse μOP (Mus musculus, UniProt P42866); assay: GloSensor cAMP inhibition assay in transfected HEK cells; type: cell-based; conditions: for cAMP α: efficacy normalized to positive control DAMGO; for IC50 / cAMP pIC50: inhibition of forskolin-induced cAMP
T4 construct: HA (N); expressed in transfected cells; host or cells: HEK cells, transient transfection together with pGloSensor22F

wildtype mice = assay: Seizure assay (modified racine scale); conditions: 10 mg·kg^−1
male mice = assay: Tail flick thermal nociception assay; type: in vivo, mouse
male, WT mice = assay: Conditioned place preference (brief and extended); conditions: 10 mg·kg^−1; four conditioning sessions each for drug and vehicle
δOP [4] = biological target: T1, δOP; type: cell-based; conditions: normalized to positive control Leu-Enk

T4 sequence (P42866 whole entry): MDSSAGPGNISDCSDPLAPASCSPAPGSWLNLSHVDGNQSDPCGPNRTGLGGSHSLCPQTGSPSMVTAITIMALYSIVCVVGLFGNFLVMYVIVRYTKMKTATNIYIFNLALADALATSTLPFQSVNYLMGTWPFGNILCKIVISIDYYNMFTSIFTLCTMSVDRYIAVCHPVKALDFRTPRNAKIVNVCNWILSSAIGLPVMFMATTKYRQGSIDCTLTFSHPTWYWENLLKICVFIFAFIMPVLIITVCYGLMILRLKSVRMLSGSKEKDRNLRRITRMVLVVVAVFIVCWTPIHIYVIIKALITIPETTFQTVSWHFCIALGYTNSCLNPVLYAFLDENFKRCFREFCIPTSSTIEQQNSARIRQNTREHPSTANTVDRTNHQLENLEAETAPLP
μOP, sequence (P35372 whole entry): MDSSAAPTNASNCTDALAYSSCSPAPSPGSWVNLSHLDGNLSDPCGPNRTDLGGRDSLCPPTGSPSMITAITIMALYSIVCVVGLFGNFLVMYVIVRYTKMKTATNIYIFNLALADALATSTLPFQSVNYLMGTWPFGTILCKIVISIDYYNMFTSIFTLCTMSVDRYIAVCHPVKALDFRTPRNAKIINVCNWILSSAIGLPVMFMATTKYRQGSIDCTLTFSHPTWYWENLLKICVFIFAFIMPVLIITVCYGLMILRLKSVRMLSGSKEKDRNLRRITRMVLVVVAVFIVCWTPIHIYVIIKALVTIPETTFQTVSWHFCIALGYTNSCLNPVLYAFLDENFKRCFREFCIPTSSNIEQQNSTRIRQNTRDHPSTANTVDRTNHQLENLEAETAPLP
κOP, sequence (P41145 whole entry): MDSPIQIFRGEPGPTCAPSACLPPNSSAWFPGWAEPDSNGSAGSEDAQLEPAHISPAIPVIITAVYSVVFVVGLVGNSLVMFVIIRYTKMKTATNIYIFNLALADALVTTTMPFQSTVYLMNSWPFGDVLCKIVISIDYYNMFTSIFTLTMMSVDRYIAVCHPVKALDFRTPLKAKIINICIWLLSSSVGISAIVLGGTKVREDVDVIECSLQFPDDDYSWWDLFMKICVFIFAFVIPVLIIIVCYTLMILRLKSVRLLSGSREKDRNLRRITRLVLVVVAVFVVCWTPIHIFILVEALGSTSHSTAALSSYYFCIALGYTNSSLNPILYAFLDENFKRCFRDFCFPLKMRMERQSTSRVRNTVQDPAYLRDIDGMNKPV
T2 sequence (P32300 whole entry): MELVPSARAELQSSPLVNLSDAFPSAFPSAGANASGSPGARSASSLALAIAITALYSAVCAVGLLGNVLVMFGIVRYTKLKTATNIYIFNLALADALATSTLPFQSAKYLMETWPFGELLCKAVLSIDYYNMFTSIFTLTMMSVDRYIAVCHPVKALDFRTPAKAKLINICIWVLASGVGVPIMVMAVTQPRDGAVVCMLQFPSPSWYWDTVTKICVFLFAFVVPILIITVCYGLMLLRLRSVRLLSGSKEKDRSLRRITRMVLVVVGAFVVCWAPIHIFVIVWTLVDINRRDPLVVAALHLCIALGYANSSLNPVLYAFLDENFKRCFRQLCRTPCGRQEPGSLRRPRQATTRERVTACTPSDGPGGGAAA
T3 sequence (P33534 whole entry): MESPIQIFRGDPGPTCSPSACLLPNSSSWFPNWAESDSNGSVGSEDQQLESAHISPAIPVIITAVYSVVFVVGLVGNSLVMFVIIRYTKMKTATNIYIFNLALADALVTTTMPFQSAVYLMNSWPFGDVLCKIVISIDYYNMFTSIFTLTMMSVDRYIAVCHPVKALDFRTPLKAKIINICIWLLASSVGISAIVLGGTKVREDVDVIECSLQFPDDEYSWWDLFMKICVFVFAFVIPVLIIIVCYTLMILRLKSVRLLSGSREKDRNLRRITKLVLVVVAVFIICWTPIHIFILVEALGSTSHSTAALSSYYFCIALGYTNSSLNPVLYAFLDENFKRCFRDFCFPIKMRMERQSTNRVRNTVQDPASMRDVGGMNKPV
T1 sequence (P41143 whole entry): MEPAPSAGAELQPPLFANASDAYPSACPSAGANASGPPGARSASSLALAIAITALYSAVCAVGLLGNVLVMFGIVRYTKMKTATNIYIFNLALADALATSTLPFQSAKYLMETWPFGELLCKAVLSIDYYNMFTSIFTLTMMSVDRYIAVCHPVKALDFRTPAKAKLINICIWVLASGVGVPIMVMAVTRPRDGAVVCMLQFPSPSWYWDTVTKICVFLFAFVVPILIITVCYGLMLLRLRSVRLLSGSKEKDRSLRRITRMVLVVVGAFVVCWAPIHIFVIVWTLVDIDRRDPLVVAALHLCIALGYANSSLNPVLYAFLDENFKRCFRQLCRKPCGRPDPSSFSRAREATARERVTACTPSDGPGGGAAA

C=CCN1CC[C@]23c4c5ccc(O)c4O[C@H]2C(=O)CC[C@@]3(O)[C@H]1C5 [naloxone, naloxone hydrochloride]
block of 7-hydroxymitragynine-induced hyperlocomotion (WT mice; dose of naloxone considered to be μOP-selective): completely blocked

CN1CC[C@]2(c3cccc(O)c3)Cc3nc4ccccc4cc3C[C@H]2C1 [TAN-67]
alcohol consumption, in words (previous reports) (C57Bl/6 wild-type mice [1]): efficaciously reduces alcohol use

CC[C@H]1CN2CCc3c([nH]c4cccc(OC)c34)[C@@H]2C[C@@H]1/C(=C\OC)C(=O)OC [SPG, speciogynine, reference compound]
alcohol intake, in words (C57Bl/6 wild-type mice [2]; systemic (i.p.) injection, modified 2-bottle choice, male C57BL/6 mice, FIG. 1): reduce alcohol intake
Binding pKi (δOP [3]): 5.1 ± 0.1 (6)
Ki (δOP [3]): 5340 nM
Binding pKi (κOP): 5.4 ± 0.1 (5)
Ki (κOP): 3000 nM

C=C[C@H]1CN2CC[C@@]3(O)C(=Nc4cccc(OC)c43)[C@@H]2C[C@@H]1/C(=C\OC)C(=O)OC [70H PAYN, 7-Hydroxypaynantheine]
ethanol consumption, in words (C57Bl/6 wild-type mice [2]; 10 mg·kg^−1 s.c., WT mice, listed as 7-hydroxypaynanthiene): not 10 mg·kg^−1
ethanol consumption, in words (C57Bl/6 wild-type mice [2]; 30 mg·kg^−1 (7-hydroxypaynantheine s.c., speciociliatine i.p.), WT male mice): significantly reduce alcohol intake; also recorded: significantly decreased ethanol consumption
ethanol consumption, in words (C57Bl/6 wild-type mice [2]; 30 mg·kg^−1 (7-hydroxypaynantheine s.c., speciociliatine i.p.), WT male mice, listed as 7-hydroxypaynanthiene): efficacious activity; also recorded: decreased the percent ethanol consumption
average decrease of ethanol consumption (C57Bl/6 wild-type mice [2]; 30 mg·kg^−1, WT mice): 1.1 ± 0.3 g/kg
percent reduction of ethanol consumption (C57Bl/6 wild-type mice [2]; 30 mg·kg^−1, WT mice): 40±11%
Binding pKi (μOP): 5.2 ± 0.1 (3)
Ki (μOP): 6150 nM
cAMP α (FLAG-mouse δOP): 70 ± 20
IC50 (FLAG-mouse δOP): 5.74 µM
cAMP pIC50 (FLAG-mouse δOP): 5.2 ± 0.3 (5)
δOP binding, in words (δOP [3]): a magnitude weaker in binding the δOP than 7-hydroxyspeciogynine
Binding pKi (δOP [3]): 4.9±0.2
Ki (δOP [3]): 12700 nM
ethanol consumption in δOP KO mice, in words (δOP KO mice; 30 mg·kg^−1): did not significantly decrease ethanol consumption; also recorded: alcohol consumption was not significantly altered
Binding pKi (κOP): 5.1 ± 0.1 (3)
Ki (κOP): 7460 nM
cAMP inhibition at the κOP, in words (FLAG-mouse κOP): not detected at the tested dose range
cAMP inhibition at the μOP, in words (HA-mouse μOP): lowest potency at the μOP; also recorded: reduced μOP potency
cAMP α (HA-mouse μOP): 80 ± 40
IC50 (HA-mouse μOP): 21.8 µM
cAMP pIC50 (HA-mouse μOP): 4.7±0.5

Oc1ccc2c3c1O[C@H]1c4[nH]c5ccccc5c4C[C@@]4(O)[C@@H](C2)N(CC2CC2)CC[C@]314 [naltrindole]
alcohol intake, in words (previous reports) (C57Bl/6 wild-type mice [1]; 10 mg·kg^−1): not decrease alcohol intake

CC[C@H]1CN2CC[C@]3(Nc4cccc(OC)c4C3=O)[C@@H]2C[C@@H]1/C(=C\OC)C(=O)OC [SPG PI, Speciogynine Pseudoindoxyl]
Binding pKi (μOP): 7.1 ± 0.1 (3)
Ki (μOP): 77 nM
cAMP α (FLAG-mouse δOP): 80 ± 20
IC50 (FLAG-mouse δOP): 8.53 µM
cAMP pIC50 (FLAG-mouse δOP): 5.1 ± 0.3 (4)
Binding pKi (δOP [3]): 6.0 ± 0.1 (3)
Ki (δOP [3]): 940 nM
Binding pKi (κOP): 6.1 ± 0.1 (3)
Ki (κOP): 750 nM
cAMP pIC50 (FLAG-mouse κOP): 4.7 ± 0.5 (4)
cAMP α (FLAG-mouse κOP): 80 ± 30
IC50 (FLAG-mouse κOP): 20.6 µM
cAMP α (HA-mouse μOP): 58 ± 4
IC50 (HA-mouse μOP): 0.23 µM
cAMP pIC50 (HA-mouse μOP): 6.6 ± 0.2 (5)

C=CC1CN2CCC3(Nc4cccc(OC)c4C3=O)C2CC1C(=COC)C(=O)OC (centres unmarked) [PAYN PI, Paynantheine Pseudoindoxyl]
Binding pKi (μOP): 6.2 ± 0.1 (3)
Ki (μOP): 680 nM
Binding pKi (δOP [3]): 6.0 ± 0.1 (3)
Ki (δOP [3]): 920 nM
Binding pKi (κOP): 5.9 ± 0.1 (4)
Ki (κOP): 1310 nM
cAMP inhibition at the μOP, in words (HA-mouse μOP): lowest potency at the μOP
cAMP α (HA-mouse μOP): 60 ± 6
IC50 (HA-mouse μOP): 4.82 µM
cAMP pIC50 (HA-mouse μOP): 5.3 ± 0.2 (4)

COc1ccsc1CNCC[C@@]1(c2ccccn2)CCOC2(CCCC2)C1 [Oliceridine]
alcohol consumption, in words (previous reports) (C57Bl/6 wild-type mice [1]): not decrease alcohol consumption

CC[C@H]1CN2CC[C@@]3(O)C(=Nc4cccc(OC)c43)[C@@H]2C[C@@H]1/C(=C\OC)C(=O)OC [7OH SPG, 7-hydroxyspeciogynine]
ethanol consumption, in words (C57Bl/6 wild-type mice [2]; 3 mg·kg^−1 s.c., WT male and female mice): reduced alcohol intake; also recorded: efficacious activity; also recorded: dose-dependently decreased ethanol consumption; also recorded: significantly decreased the percent ethanol consumption
average decrease of ethanol consumption (C57Bl/6 wild-type mice [2]; 10 mg·kg^−1, WT mice): 1.2 ± 0.2 g/kg
percent reduction of ethanol consumption (C57Bl/6 wild-type mice [2]; 10 mg·kg^−1, WT mice): 40±7%
ethanol consumption, in words (C57Bl/6 wild-type mice [2]; 10 mg·kg^−1 s.c., WT mice): reduced alcohol intake; also recorded: dose-dependently decreased ethanol consumption; also recorded: significantly decreased the percent ethanol consumption
ambulation / locomotor activity (WT mice; 10 mg·kg^−1): did not significantly alter ambulation
seizure activity (wildtype mice): did not significantly alter ambulation (paired, two-tailed t-test, t=0.7552, df=6, p=0.4787) (FIG. 5B) or induce seizures
block of morphine analgesia (antagonist mode) (male mice; 10 mg·kg^−1, then morphine 6 mg·kg^−1 s.c. 10 minutes later): did not produce antinociception (paired, two-tailed t-test, t=0.6193, df=9, p=0.5511) or block morphine analgesia
antinociception (agonist mode) (male mice; 10 mg·kg^−1, 30 minutes after drug): did not produce antinociception
μOP affinity, in words (μOP): strongest μOP affinity
cAMP inhibition at the δOP, in words (FLAG-mouse δOP): strongest activator at the δOP
difference in potency at the δOP between 7-hydroxyspeciogynine and 7-hydroxypaynantheine (FLAG-mouse δOP): 10 fold
cAMP α (FLAG-mouse δOP): 76 ± 6
IC50 (FLAG-mouse δOP): 2.27 µM
cAMP pIC50 (FLAG-mouse δOP): 5.6 ± 0.1 (6)
conditioned place preference, extended protocol (male, WT mice): did not develop conditioned place preference
δOP binding, in words (δOP [3]): improved binding relative to speciogynine
Binding pKi (δOP [3]): 6.3±0.1
Ki (δOP [3]): 460 nM
ethanol consumption in δOP KO mice, in words (δOP KO mice; 3 mg·kg^−1): did not significantly decrease ethanol consumption; also recorded: alcohol consumption was not significantly altered
ethanol consumption in δOP KO mice, in words (δOP KO mice; 10 mg·kg^−1): did not significantly decrease ethanol consumption; also recorded: alcohol consumption was not significantly altered
Binding pKi (κOP): 5.8 ± 0.2 (3)
Ki (κOP): 1630 nM
cAMP pIC50 (FLAG-mouse κOP): 5.1 ± 0.3 (3)
cAMP α (FLAG-mouse κOP): 80 ± 20
IC50 (FLAG-mouse κOP): 7.71 µM
cAMP inhibition at the μOP, in words (HA-mouse μOP): lowest potency at the μOP; also recorded: reduced μOP potency
cAMP α (HA-mouse μOP): 66 ± 6
IC50 (HA-mouse μOP): 2.4 µM
cAMP pIC50 (HA-mouse μOP): 6.2±0.3

Leu-enkephalin [reference compound]
cAMP α (FLAG-mouse δOP): 100
β-arrestin 2 α (δOP [4]): 100
